6 sequences from publication PMC7413254 (Nature Communications, 2020) can be followed below.

In one assay the test system is non-expressing oocytes. Format: cell-based, Xenopus laevis. The note with it: footnote b: highest intracellular concentration tested was 30 mM (solubility); for Total [3H]CQ transport, trans-stimulation by injected solute / Trans-stimulation data: total [3H]CQ transport: non-expressing oocytes; for Trans-stimulation data: total [3H]CQ transport: normalised to the oocyte type control (control = 100); for Trans-stimulation: total [3H]CQ transport, non-expressing oocytes: mean ± SEM, SEM. As for the experimental part:
Unless specified otherwise, the transport assays were conducted over 1.5 h at 27.5 °C and the reaction buffer was ND96 (96 mM NaCl, 2 mM KCl, 1 mM MgCl2, 1.8 mM CaCl2, 10 mM MES and 10 mM Tris-base) at pH 5.5.
The intracellular concentrations were calculated using previous estimates of the volume of stage V–VI oocytes (~400 nL[60]). […] The oocytes were injected with VF-6 suspended in 25 nL ND96 buffer adjusted to pH 5.0, 5.5, 6.0 or 7.0, which corresponded to the injection of 2.5–250 fmol of H^+. The Na^+-dependence of the trans-stimulatory effect of VF-6 was assessed by injecting the oocytes with VF-6 suspended in ND96 buffer (pH 5.5) or a Na^+-free version of this buffer (the Na^+ was replaced with choline).
At least four independent experiments were performed (on different days and using oocytes from different frogs), and within each experiment measurements were made from ten oocytes per treatment.

Another assay addresses PfCRT^Ecu1110 (Plasmodium falciparum, UniProt Q9N623, A220S/I356L/K76T/N326D). As to the kind of experiment: cell-based. Format: cell-based. The note with it: for Total [3H]CQ transport, trans-stimulation by injected solute / Trans-stimulation data: total [3H]CQ transport: PfCRTEcu1110 oocytes; for Total [3H]CQ transport, trans-stimulation by injected solute / Trans-stimulation data: total [3H]CQ transport / Trans-stimulation: total [3H]CQ transport, PfCRTEcu1110 oocytes: footnote b: highest intracellular concentration tested was 30 mM (solubility); for Trans-stimulation data: total [3H]CQ transport: normalised to the oocyte type control (control = 100); for Trans-stimulation data: PfCRT-mediated [3H]CQ transport: footnote b: due to solubility the highest intracellular concentration tested was 30 mM, normalised to the oocyte type control = 100; for Trans-stimulation: total [3H]CQ transport, PfCRTEcu1110 oocytes: mean ± SEM, SEM. An outline of the steps:
(§1)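 Oocytes (ten per treatment, ≥4 independent frogs/days) were preloaded by injecting VF-6 in 25 nL ND96 at pH 5.0, 5.5, 6.0 or 7.0, or Na^+-free choline buffer, then uptake run 1.5 h, 27.5 °C, ND96 pH 5.5 by default. Internal concentrations assumed ~400 nL oocyte volume.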

For another assay, the target named is T1, PfNT1 (Plasmodium falciparum, UniProt Q8IDM6).
T1 construct: expressed in transfected cells; host or cells: Xenopus laevis oocytes (stage V-VI), cRNA-injected
T1 sequence (Q8IDM6 whole entry): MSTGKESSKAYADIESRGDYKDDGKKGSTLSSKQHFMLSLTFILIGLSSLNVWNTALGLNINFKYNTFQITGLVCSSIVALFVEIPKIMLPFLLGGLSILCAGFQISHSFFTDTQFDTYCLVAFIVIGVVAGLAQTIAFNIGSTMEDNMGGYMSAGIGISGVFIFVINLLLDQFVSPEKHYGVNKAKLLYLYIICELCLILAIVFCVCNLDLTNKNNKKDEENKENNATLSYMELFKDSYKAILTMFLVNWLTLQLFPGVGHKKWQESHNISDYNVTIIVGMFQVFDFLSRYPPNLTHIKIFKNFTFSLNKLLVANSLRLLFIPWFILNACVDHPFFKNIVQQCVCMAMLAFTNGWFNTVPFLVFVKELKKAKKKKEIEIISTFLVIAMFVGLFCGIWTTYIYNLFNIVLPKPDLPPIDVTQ
As to the kind of experiment: cell-based. It is filed as cell-based. The note with it: footnote b: highest intracellular concentration tested was 30 mM (solubility); for Total [3H]CQ transport, trans-stimulation by injected solute / Trans-stimulation data: total [3H]CQ transport: PfNT1 oocytes; for Trans-stimulation data: total [3H]CQ transport: normalised to the oocyte type control (control = 100); for Trans-stimulation: total [3H]CQ transport, PfNT1 oocytes: mean ± SEM, SEM. An outline of the steps:
as §1

The target in another assay is PfCRT^Dd2 (Plasmodium falciparum, UniProt Q9N623, A220S/I356T/K76T/M74I/N326S/N75E/Q271E/R371I). As to the kind of experiment: cell-based. The note with it: for Total [3H]CQ transport, trans-stimulation by injected solute / Trans-stimulation data: total [3H]CQ transport: PfCRTDd2 oocytes; for Total [3H]CQ transport, trans-stimulation by injected solute / Trans-stimulation data: total [3H]CQ transport / Trans-stimulation: total [3H]CQ transport, PfCRTDd2 oocytes: footnote b: highest intracellular concentration tested was 30 mM (solubility); for Trans-stimulation data: total [3H]CQ transport: normalised to the oocyte type control (control = 100); for PfCRT-mediated [3H]CQ transport, trans-stimulation by injected solute, PfCRTDd2 / Trans-stimulation data: PfCRT-mediated [3H]CQ transport: footnote b: due to solubility the highest intracellular concentration tested was 30 mM; for PfCRT-mediated [3H]CQ transport, trans-stimulation by injected solute, PfCRTDd2: background subtracted; for Trans-stimulation data: PfCRT-mediated [3H]CQ transport: normalised to the oocyte type control = 100; for Trans-stimulation: total [3H]CQ transport, PfCRTDd2 oocytes: mean ± SEM, SEM. Format: cell-based. An outline of the steps:
as §1

Another assay has as its target PfCRT^3D7 (Plasmodium falciparum, UniProt Q8IBZ9). As to the kind of experiment: cell-based. The note with it: for Trans-stimulation data: PfCRT-mediated [3H]CQ transport: 2nd of 6 trans-stimulation columns, footnote b: due to solubility the highest intracellular concentration tested was 30 mM, normalised to the oocyte type control = 100; for Total [3H]CQ transport, trans-stimulation by injected solute / Trans-stimulation data: total [3H]CQ transport: PfCRT3D7 oocytes; for Total [3H]CQ transport, trans-stimulation by injected solute / Trans-stimulation data: total [3H]CQ transport / Trans-stimulation: total [3H]CQ transport, PfCRT3D7 oocytes: footnote b: highest intracellular concentration tested was 30 mM (solubility); for Trans-stimulation data: total [3H]CQ transport: normalised to the oocyte type control (control = 100); for Trans-stimulation: total [3H]CQ transport, PfCRT3D7 oocytes: mean ± SEM, SEM. It is filed as cell-based. An outline of the steps:
as §1

Chain of PfCRT^Ecu1110 (Q9N623 whole entry A220S/I356L/K76T/N326D): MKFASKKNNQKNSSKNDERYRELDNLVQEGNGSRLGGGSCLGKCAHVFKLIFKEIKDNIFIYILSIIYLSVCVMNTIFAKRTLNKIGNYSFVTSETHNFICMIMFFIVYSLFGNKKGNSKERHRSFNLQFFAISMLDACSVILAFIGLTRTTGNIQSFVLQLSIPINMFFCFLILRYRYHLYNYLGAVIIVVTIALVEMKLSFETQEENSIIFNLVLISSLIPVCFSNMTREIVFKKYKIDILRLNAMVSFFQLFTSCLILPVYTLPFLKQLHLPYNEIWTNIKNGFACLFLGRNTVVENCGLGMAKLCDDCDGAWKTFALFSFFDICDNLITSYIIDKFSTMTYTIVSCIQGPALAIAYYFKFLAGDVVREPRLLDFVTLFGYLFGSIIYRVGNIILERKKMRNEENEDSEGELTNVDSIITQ
Chain of PfCRT^Dd2 (Q9N623 whole entry A220S/I356T/K76T/M74I/N326S/N75E/Q271E/R371I): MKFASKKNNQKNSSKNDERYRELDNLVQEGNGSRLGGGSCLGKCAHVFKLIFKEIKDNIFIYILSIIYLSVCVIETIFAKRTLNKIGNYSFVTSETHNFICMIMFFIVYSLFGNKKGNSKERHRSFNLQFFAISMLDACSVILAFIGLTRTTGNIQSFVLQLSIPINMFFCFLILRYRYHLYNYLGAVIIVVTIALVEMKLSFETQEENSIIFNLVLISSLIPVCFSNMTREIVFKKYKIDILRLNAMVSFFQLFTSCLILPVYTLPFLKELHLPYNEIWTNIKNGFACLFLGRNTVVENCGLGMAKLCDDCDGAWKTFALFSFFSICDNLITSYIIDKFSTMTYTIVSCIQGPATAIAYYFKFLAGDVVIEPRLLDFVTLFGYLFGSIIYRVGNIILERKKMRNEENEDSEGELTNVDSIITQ
Chain of PfCRT^3D7 (Q8IBZ9 59-398): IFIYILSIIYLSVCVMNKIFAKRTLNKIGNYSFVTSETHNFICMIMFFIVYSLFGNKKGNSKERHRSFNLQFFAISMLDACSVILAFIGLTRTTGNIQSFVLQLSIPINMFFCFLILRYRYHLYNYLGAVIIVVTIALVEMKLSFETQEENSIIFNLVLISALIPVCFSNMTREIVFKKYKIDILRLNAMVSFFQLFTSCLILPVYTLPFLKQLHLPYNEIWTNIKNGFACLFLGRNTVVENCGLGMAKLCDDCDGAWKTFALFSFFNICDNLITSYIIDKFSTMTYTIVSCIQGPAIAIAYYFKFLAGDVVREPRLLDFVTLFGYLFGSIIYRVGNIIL

Consider “DDEGDDDPVPLPNVNA [DA-16, additional peptide, 16 residues]”, for which the “Total [3H]CQ transport, trans-stimulation by injected solute” value (“Total … by injected solute” for short) is 2.6 ± 0.08b % of the PfCRTDd2 control with non-expressing oocytes; 33 ± 1.8b % of the PfCRTDd2 control on PfCRT^Ecu1110; 3.3 ± 0.07b % of the PfCRTDd2 control at PfNT1; 99 ± 2.7b % of the PfCRTDd2 control at PfCRT^Dd2; 3.1 ± 0.02b % of the PfCRTDd2 control on PfCRT^3D7. In addition, the “Trans-stimulation data: total [3H]CQ transport” value (“Trans-stimulation data: total” below) in the assay on non-expressing oocytes was 98 ± 3.5b; on PfCRT^Ecu1110 it was 99 ± 3.7b; at PfNT1, 99 ± 2.4b; at PfCRT^Dd2, 99 ± 2.7b; at PfCRT^3D7, 100 ± 4.5b. Further, the “Trans-stimulation data: PfCRT-mediated [3H]CQ transport” value (“Trans-stimulation data: PfCRT-mediated” for short) on PfCRT^Ecu1110 was determined as 98 ± 2.9b; at PfCRT^Dd2, 100 ± 1.9b; on PfCRT^3D7 it was 97 ± 2.2b. The “PfCRT-mediated [3H]CQ transport, trans-stimulation by injected solute, PfCRTDd2” value (shortened to “PfCRT-mediated [3H]CQ transport … PfCRTDd2”) on PfCRT^Dd2 is given as 100 ± 1.9b % of PfCRTDd2 control.

On to “FESFGDLSTPDAVMGNPKVK [FK-20, additional peptide, 20 residues]”, for which the “Total … by injected solute” value in the assay on non-expressing oocytes is on record as 2.7 ± 0.06b % of the PfCRTDd2 control; on PfCRT^Ecu1110, 32 ± 1.7b % of the PfCRTDd2 control; at PfNT1, 4.2 ± 0.03b % of the PfCRTDd2 control; at PfCRT^Dd2 it was 101 ± 4.7b % of the PfCRTDd2 control; at PfCRT^3D7, 3.1 ± 0.05b % of the PfCRTDd2 control. Moreover, the “Trans-stimulation data: total” value is reported as 100 ± 4.8b with non-expressing oocytes; 99 ± 2.9b at PfCRT^Ecu1110; 100 ± 4.2b on PfNT1; 101 ± 4.7b at PfCRT^Dd2; 101 ± 2.7b on PfCRT^3D7. For the same sequence, the figures for the “Trans-stimulation data: PfCRT-mediated” value on PfCRT^Ecu1110, on PfCRT^Dd2 and at PfCRT^3D7 were 97 ± 2.0b, 98 ± 4.3b and 98 ± 1.7b, respectively. In addition, at PfCRT^Dd2, the “PfCRT-mediated [3H]CQ transport … PfCRTDd2” value is given as 98 ± 4.3b % of PfCRTDd2 control.

GTFATLSELHCDK [GK-13]: in the assay with non-expressing oocytes, the “Trans-stimulation: total [3H]CQ transport, non-expressing oocytes” value is 2.6 ± 0.05b % of PfCRTDd2 control and the “Trans-stimulation data: total” value worked out at 100 ± 3.8b. For the same sequence, at PfCRT^Ecu1110, the “Trans-stimulation data: total” value came to 99 ± 2.2b; the “Trans-stimulation: total [3H]CQ transport, PfCRTEcu1110 oocytes” value is 32 ± 1.5b % of PfCRTDd2 control; the “Trans-stimulation data: PfCRT-mediated” value was determined as 97 ± 1.9b. For the same sequence, on PfNT1, the “Trans-stimulation data: total” value came to 99 ± 2.7b and the “Trans-stimulation: total [3H]CQ transport, PfNT1 oocytes” value was 2.6 ± 0.04b % of PfCRTDd2 control. For the same sequence, on PfCRT^Dd2, the “Trans-stimulation data: total” value was 97 ± 2.7b; the “PfCRT-mediated [3H]CQ transport … PfCRTDd2” value is reported as 95 ± 1.3b % of PfCRTDd2 control; the “Trans-stimulation: total [3H]CQ transport, PfCRTDd2 oocytes” value is given as 97 ± 2.7b % of PfCRTDd2 control; the “Trans-stimulation data: PfCRT-mediated” value was 95 ± 1.3b. Further, at PfCRT^3D7, the “Trans-stimulation data: PfCRT-mediated” value is 98 ± 4.1b; the “Trans-stimulation data: total” value was found to be 100 ± 3.6b; the “Trans-stimulation: total [3H]CQ transport, PfCRT3D7 oocytes” value was 3.1 ± 0.04b % of PfCRTDd2 control.

As to LTPEEKSAVTAL [LL-12], in the assay on non-expressing oocytes, the “Trans-stimulation: total [3H]CQ transport, non-expressing oocytes” value was 3.2 ± 0.08b % of PfCRTDd2 control and the “Trans-stimulation data: total” value came to 99 ± 2.4b. For the same sequence, on PfCRT^Ecu1110, the “Trans-stimulation data: total” value was found to be 100 ± 2.2b; the “Trans-stimulation: total [3H]CQ transport, PfCRTEcu1110 oocytes” value is reported as 33 ± 1.0b % of PfCRTDd2 control; the “Trans-stimulation data: PfCRT-mediated” value is reported as 98 ± 1.7b. For the same sequence, at PfNT1, the “Trans-stimulation data: total” value is 99 ± 2.5b and the “Trans-stimulation: total [3H]CQ transport, PfNT1 oocytes” value is listed as 2.2 ± 0.06b % of PfCRTDd2 control. Moreover, on PfCRT^Dd2, the “Trans-stimulation data: total” value was 100 ± 2.8b; the “PfCRT-mediated [3H]CQ transport … PfCRTDd2” value is 98 ± 1.1b % of PfCRTDd2 control; the “Trans-stimulation: total [3H]CQ transport, PfCRTDd2 oocytes” value is listed as 100 ± 2.8b % of PfCRTDd2 control; the “Trans-stimulation data: PfCRT-mediated” value came to 98 ± 1.1b. For the same sequence, at PfCRT^3D7, the “Trans-stimulation data: PfCRT-mediated” value is on record as 97 ± 3.4b; the “Trans-stimulation data: total” value is 99 ± 2.7b; the “Trans-stimulation: total [3H]CQ transport, PfCRT3D7 oocytes” value is on record as 3.1 ± 0.05b % of PfCRTDd2 control.

In the case of “LTPEEKSAVTALWGKVNVDEVGGEA [LA-25, additional peptide, 25 residues]”, the “Total … by injected solute” value in the assay with non-expressing oocytes is given as 2.5 ± 0.04b % of the PfCRTDd2 control; at PfCRT^Ecu1110 it was 33 ± 1.8b % of the PfCRTDd2 control; on PfNT1, 2.7 ± 0.07b % of the PfCRTDd2 control; at PfCRT^Dd2, 100 ± 3.3b % of the PfCRTDd2 control; at PfCRT^3D7 it was 3.1 ± 0.02b % of the PfCRTDd2 control. For the same sequence, the “Trans-stimulation data: total” value came out at 101 ± 3.3b with non-expressing oocytes; 101 ± 4.3b at PfCRT^Ecu1110; 101 ± 4.1b at PfNT1; 100 ± 3.3b on PfCRT^Dd2; 99 ± 2.6b on PfCRT^3D7. Further, the “Trans-stimulation data: PfCRT-mediated” value on PfCRT^Ecu1110 amounted to 98 ± 4.2b; at PfCRT^Dd2, 97 ± 3.3b; on PfCRT^3D7, 97 ± 3.1b. Besides, the “PfCRT-mediated [3H]CQ transport … PfCRTDd2” value at PfCRT^Dd2 is 97 ± 3.3b % of PfCRTDd2 control.

As to “NAVAHVDDMPNALSALSDLH [NH-20, additional peptide, 20 residues]”, the “Total … by injected solute” value in the assay with non-expressing oocytes is 3.3 ± 0.07b % of the PfCRTDd2 control; at PfCRT^Ecu1110, 32 ± 1.7b % of the PfCRTDd2 control; on PfNT1, 3.2 ± 0.07b % of the PfCRTDd2 control; at PfCRT^Dd2, 99 ± 2.8b % of the PfCRTDd2 control; on PfCRT^3D7 it was 3.0 ± 0.05b % of the PfCRTDd2 control. Also, the “Trans-stimulation data: total” value in the assay on non-expressing oocytes was determined as 101 ± 4.8b; on PfCRT^Ecu1110, 100 ± 3.5b; on PfNT1 it was 100 ± 3.6b; on PfCRT^Dd2, 99 ± 2.8b; at PfCRT^3D7, 99 ± 3.5b. For the same sequence, the “Trans-stimulation data: PfCRT-mediated” value at PfCRT^Ecu1110 stood at 97 ± 3.2b; at PfCRT^Dd2, 97 ± 3.6b; at PfCRT^3D7, 95 ± 3.2b. In addition, the “PfCRT-mediated [3H]CQ transport … PfCRTDd2” value at PfCRT^Dd2 is recorded as 97 ± 3.6b % of PfCRTDd2 control.
